From US20180042983A1, “THERAPEUTIC COMPOSITIONS INCLUDING MITOCHONDRIAL FISSION INHIBITOR PEPTIDES, VARIANTS THEREOF, AND METHODS OF USING THE SAME” (STEALTH PEPTIDES INTERNATIONAL, INC., priority 2015, published 2018)

Tests used:
[1] = tested on: several mammalian cell types; settings: cited from earlier work
neonatal cardiomyocytes = test: Ang II-induced mitochondrial ROS in neonatal cardiomyocytes (Mitosox flow cytometry); type: cell-based, mouse; settings: after Ang II (1 μM, 3 hours)
Description: Ventricles from mouse neonates younger than 72 hours will be dissected, minced, and enzymatically digested with Blendzyme 4 (45 mg/mL, Roche). After enzymatic digestion, cardiomyocytes will be enriched using differential pre-plating for 2 hours, and seeded on fibronectin-coated culture dishes for 24 hours in DMEM (Gibco) with 20% Fetal Bovine Serum (Sigma) and 25 μM Arabinosylcytosine (Sigma). Cardiomyocytes will be stimulated with Angiotensin II (1 μM) for 3 hours in serum-free DMEM containing 0.5% insulin transferrin-selenium (Sigma), 2 mM glutamine, and 1 mg/mL BSA. […] To measure mitochondrial superoxide concentration, Mitosox ([…]) will be incubated for 30 minutes at 37° C. to load cardiomyocytes, followed by 2 washes with Hanks Balanced Salt Solution. Samples will be analyzed using excitation/emission of 488/625 nm by flow cytometry. Flow data will be analyzed using FCS Express (De Novo Software, Los Angeles, Calif., U.S.A.), and presented as histogram distributions of Mitosox fluorescence intensity.

Molecule	penetration of the plasma membrane [1]	mitochondrial ROS (Mitosox fluorescence) (neonatal cardiomyocytes)
2′,6′-Dmt-D-Arg-Phe-Lys-NH2	readily penetrates the plasma membrane of several mammalian cell types in an energy-independent manner	–
CC(=O)N[C@@H](CS)C(=O)O [N-acetyl cysteine]	–	not show any effect
